Results reported in article PMC9736855, “Discovery of 3-Amino-1H-pyrazole-Based Kinase Inhibitors to Illuminate the Understudied PCTAIRE Family” (International Journal of Molecular Sciences, 2022).

What was measured:
Assay in all cases: DSF
Assay type in all cases: binding
[1] = target: T1, EPHB3 (Homo sapiens, UniProt P54753)
T1 construct: purchased in-house DSF panel (SGC Frankfurt)
T1 sequence (P54753 616-910): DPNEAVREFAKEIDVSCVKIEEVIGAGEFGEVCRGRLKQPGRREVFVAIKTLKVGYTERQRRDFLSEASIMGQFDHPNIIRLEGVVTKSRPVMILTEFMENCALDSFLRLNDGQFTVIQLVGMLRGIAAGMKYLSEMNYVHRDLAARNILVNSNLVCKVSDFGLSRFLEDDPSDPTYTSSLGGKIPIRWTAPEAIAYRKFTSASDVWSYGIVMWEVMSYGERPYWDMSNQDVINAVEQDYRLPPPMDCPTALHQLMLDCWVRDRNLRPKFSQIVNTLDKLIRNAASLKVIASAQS
Method: (§1) Measurements were performed in duplicates.

[2] = target: T2, CDC42BPA (Homo sapiens, UniProt Q5VT25)
T2 construct: purchased in-house DSF panel (SGC Frankfurt)
T2 sequence (Q5VT25 1-414): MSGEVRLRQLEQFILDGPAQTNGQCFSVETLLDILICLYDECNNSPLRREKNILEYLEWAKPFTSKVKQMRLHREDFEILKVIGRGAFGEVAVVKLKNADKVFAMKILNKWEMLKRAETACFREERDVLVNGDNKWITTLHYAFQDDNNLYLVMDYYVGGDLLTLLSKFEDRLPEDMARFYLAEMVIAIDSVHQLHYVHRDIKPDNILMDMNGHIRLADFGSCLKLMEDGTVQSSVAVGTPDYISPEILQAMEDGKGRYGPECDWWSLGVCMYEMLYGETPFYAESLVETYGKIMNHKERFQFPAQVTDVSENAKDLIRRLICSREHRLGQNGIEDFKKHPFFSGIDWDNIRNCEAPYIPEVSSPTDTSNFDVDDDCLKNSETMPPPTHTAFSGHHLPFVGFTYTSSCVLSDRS
Method: as §1

[3] = target: T3, FLT1 (Homo sapiens, UniProt P17948)
T3 construct: purchased in-house DSF panel (SGC Frankfurt)
T3 sequence (P17948 801-1158): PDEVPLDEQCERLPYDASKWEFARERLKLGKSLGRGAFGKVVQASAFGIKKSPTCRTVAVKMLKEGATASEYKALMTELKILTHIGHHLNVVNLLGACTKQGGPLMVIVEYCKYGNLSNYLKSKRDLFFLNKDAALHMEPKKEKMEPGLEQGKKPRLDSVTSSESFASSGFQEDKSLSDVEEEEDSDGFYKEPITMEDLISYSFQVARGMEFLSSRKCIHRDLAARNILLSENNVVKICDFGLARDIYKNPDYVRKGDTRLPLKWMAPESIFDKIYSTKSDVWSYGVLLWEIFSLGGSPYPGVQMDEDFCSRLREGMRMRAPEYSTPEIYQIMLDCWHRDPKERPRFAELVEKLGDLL
Method: as §1

[4] = target: T4, SLK (Homo sapiens, UniProt Q9H2G2)
T4 construct: purchased in-house DSF panel (SGC Frankfurt)
Method: as §1

[5] = target: T5, PLK4 (Homo sapiens, UniProt O00444)
T5 construct: purchased in-house DSF panel (SGC Frankfurt)
T5 sequence (O00444 2-275): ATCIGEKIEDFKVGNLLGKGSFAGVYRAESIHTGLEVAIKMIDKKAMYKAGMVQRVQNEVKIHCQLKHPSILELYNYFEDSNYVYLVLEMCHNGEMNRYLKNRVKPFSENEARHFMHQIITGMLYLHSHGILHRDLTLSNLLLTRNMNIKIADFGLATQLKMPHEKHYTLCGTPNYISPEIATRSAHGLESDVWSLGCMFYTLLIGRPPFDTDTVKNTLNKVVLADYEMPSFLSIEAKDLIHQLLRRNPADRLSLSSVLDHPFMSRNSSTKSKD
Method: as §1

[6] = target: T6, STK10 (Homo sapiens, UniProt O94804)
T6 construct: purchased in-house DSF panel (SGC Frankfurt)
T6 sequence (O94804 18-317): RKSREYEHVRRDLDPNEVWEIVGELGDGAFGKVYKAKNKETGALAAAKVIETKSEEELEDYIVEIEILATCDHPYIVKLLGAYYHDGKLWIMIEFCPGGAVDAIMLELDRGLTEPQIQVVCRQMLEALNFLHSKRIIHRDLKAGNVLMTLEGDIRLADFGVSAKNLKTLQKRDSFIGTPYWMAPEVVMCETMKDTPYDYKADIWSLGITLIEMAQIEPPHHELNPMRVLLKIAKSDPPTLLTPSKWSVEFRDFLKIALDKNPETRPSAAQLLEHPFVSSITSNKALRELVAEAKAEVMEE
Method: as §1

[7] = target: T7, DCAMKL1 (Homo sapiens, UniProt O15075)
T7 construct: purchased in-house DSF panel (SGC Frankfurt)
T7 sequence (O15075 390-647): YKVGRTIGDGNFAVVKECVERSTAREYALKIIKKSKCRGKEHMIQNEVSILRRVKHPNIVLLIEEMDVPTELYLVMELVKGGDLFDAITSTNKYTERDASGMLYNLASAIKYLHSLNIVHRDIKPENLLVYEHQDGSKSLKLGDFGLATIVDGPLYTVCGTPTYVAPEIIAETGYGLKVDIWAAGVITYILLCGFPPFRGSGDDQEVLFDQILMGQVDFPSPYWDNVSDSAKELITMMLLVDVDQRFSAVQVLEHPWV
Method: as §1

[8] = target: T8, MERTK (Homo sapiens, UniProt Q12866)
T8 construct: purchased in-house DSF panel (SGC Frankfurt)
T8 sequence (Q12866 570-864): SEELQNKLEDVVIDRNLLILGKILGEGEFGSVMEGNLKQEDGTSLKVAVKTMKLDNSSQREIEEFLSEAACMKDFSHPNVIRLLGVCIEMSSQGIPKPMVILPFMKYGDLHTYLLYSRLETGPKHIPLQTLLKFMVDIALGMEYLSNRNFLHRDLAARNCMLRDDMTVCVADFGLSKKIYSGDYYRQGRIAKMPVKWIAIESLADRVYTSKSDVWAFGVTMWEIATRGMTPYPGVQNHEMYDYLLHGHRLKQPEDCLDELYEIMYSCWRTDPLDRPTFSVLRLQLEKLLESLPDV
Method: as §1

[9] = target: T9, STK4 (Homo sapiens, UniProt Q13043)
T9 construct: purchased in-house DSF panel (SGC Frankfurt)
T9 sequence (Q13043 30-281): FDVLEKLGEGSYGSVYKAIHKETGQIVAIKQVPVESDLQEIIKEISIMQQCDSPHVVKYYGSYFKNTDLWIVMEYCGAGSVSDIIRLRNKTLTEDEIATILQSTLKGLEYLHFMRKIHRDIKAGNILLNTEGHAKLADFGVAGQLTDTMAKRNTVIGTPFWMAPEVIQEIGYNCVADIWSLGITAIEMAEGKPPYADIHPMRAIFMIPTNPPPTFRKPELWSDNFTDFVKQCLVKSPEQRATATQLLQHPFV
Method: as §1

[10] = target: T10, STK39 (Homo sapiens, UniProt Q9UEW8)
T10 construct: purchased in-house DSF panel (SGC Frankfurt)
Method: as §1

[11] = target: T11, EPHA7 (Homo sapiens, UniProt Q15375)
T11 construct: purchased in-house DSF panel (SGC Frankfurt)
T11 sequence (Q15375 590-899): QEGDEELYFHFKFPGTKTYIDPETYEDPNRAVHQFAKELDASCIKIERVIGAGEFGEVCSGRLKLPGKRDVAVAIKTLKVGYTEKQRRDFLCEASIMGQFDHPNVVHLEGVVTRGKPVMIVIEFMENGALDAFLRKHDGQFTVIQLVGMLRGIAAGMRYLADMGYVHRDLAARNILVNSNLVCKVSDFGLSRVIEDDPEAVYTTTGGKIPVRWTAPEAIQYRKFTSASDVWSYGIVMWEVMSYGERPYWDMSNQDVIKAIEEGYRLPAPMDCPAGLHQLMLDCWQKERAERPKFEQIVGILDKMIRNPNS
Method: as §1

[12] = target: T12, MARK4 (Homo sapiens, UniProt Q96L34)
T12 construct: purchased in-house DSF panel (SGC Frankfurt)
T12 sequence (Q96L34 59-310): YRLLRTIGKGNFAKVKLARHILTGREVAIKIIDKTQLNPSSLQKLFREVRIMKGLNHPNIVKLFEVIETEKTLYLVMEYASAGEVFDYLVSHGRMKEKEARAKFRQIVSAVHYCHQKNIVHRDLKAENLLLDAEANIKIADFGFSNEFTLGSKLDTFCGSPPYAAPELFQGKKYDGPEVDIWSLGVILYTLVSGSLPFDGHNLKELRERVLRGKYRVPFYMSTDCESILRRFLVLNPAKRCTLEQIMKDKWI
Method: as §1

[13] = target: T13, DAPK1 (Homo sapiens, UniProt P53355)
T13 construct: purchased in-house DSF panel (SGC Frankfurt)
T13 sequence (P53355 1-285): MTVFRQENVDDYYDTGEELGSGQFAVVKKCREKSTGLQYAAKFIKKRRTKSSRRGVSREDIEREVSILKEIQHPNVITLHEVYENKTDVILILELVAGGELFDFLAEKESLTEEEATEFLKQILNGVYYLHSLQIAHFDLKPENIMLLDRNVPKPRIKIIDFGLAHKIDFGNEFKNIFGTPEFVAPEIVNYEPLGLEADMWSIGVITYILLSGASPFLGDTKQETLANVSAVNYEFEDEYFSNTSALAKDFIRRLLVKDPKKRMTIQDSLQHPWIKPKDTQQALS
Method: as §1

[14] = target: T14, MAPK13 (Homo sapiens, UniProt O15264)
T14 construct: purchased in-house DSF panel (SGC Frankfurt)
T14 sequence (O15264 1-365): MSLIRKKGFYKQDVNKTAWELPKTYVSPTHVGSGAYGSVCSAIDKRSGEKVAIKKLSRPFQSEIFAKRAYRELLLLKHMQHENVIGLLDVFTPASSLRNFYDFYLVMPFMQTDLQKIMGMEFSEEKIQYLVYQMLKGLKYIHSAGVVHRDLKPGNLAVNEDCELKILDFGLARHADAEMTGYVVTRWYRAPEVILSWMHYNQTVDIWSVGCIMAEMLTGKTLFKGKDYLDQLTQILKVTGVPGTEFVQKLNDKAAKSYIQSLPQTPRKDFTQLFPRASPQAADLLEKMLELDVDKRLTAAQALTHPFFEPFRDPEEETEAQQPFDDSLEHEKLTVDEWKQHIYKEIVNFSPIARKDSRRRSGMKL
Method: as §1

[15] = target: T15, PAK1 (Homo sapiens, UniProt Q13153)
T15 construct: purchased in-house DSF panel (SGC Frankfurt)
T15 sequence (Q13153 249-545): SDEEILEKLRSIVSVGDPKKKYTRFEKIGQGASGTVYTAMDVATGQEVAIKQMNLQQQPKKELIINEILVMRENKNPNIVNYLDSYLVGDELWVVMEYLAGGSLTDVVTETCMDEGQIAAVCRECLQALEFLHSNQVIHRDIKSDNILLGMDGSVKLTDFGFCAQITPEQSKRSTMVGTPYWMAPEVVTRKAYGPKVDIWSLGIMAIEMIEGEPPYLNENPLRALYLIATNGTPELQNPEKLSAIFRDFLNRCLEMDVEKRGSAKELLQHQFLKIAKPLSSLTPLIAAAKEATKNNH
Method: as §1

[16] = target: T16, MELK (Homo sapiens, UniProt Q14680)
T16 construct: purchased in-house DSF panel (SGC Frankfurt)
T16 sequence (Q14680 whole entry): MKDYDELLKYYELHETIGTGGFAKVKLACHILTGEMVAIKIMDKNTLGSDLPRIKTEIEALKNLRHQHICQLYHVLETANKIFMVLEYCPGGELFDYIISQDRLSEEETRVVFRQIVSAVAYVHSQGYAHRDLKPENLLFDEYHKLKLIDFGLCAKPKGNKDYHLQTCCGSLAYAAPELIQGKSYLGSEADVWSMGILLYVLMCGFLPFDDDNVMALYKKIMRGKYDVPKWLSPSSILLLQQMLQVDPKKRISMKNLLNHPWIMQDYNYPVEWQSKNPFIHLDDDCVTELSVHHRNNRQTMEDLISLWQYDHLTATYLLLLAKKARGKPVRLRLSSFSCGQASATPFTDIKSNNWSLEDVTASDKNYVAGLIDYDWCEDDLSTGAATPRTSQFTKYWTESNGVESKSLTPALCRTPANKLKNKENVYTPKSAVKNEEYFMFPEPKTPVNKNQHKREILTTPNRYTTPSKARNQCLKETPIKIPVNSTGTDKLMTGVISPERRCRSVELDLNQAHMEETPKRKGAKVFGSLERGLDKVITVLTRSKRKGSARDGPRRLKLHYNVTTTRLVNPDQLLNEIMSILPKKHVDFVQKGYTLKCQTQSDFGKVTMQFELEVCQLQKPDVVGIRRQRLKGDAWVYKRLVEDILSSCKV
Method: as §1

[17] = target: T17, BMP2K (Homo sapiens, UniProt Q9NSY1)
T17 construct: purchased in-house DSF panel (SGC Frankfurt)
T17 sequence (Q9NSY1 38-345): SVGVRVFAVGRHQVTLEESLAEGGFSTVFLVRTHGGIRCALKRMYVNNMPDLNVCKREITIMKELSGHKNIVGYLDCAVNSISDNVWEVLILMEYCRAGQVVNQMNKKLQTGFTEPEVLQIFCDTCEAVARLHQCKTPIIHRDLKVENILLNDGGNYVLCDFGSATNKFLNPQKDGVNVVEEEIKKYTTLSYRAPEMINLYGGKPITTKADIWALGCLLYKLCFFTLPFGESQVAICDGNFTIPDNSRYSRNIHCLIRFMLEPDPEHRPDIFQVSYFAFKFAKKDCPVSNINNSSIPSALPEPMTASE
Method: as §1

Row | SMILES | ΔTm EPHB3 [1] | ΔTm CDC42BPA [2] | ΔTm FLT1 [3] | ΔTm SLK [4] | ΔTm PLK4 [5] | ΔTm STK10 [6] | ΔTm DCAMKL1 [7] | ΔTm MERTK [8] | ΔTm STK4 [9] | ΔTm STK39 [10] | ΔTm EPHA7 [11] | ΔTm MARK4 [12] | ΔTm DAPK1 [13] | ΔTm MAPK13 [14] | ΔTm PAK1 [15] | ΔTm MELK [16] | ΔTm BMP2K [17]
1 | COC(=O)c1cc(Nc2ccnc(NCc3ccc(NC(=O)OC(C)(C)C)cc3)n2)[nH]n1 [21i, methyl 5-((2-((4-((tert-butoxycarbonyl)amino)benzyl)amino)pyrimidin-4-yl)amino)-1H-pyrazole-3-carboxylate] | 0.4 °C | -0.5 °C | 2.2 °C | 0.2 °C | 4.1 °C | -0.7 °C | -0.6 °C | -0.1 °C | 2.2 °C | 2.1 °C | 0.6 °C | 3.3 °C | 0.6 °C | 1.0 °C | -0.4 °C | 0.9 °C | 2.8 °C
2 | CC(C)(C)OC(=O)Nc1ccc(CNc2nccc(Nc3cc(C(=O)OC(C)(C)C)[nH]n3)n2)cc1 [43d, tert-butyl 3-((2-((4-((tert-butoxycarbonyl)amino)benzyl)amino)pyrimidin-4-yl)amino)-1H-pyrazole-5-carboxylate] | 1.7 °C | -0.8 °C | 0.9 °C | 0.1 °C | 5.5 °C | -0.8 °C | -2.1 °C | -0.8 °C | -0.2 °C | -0.9 °C | -3.4 °C | -0.5 °C | -0.4 °C | 1.3 °C | -0.6 °C | 0.2 °C | 1.7 °C
3 | CN[C@@H]1C[C@H]2O[C@@](C)([C@@H]1OC)n1c3ccccc3c3c4c(c5c6ccccc6n2c5c31)C(=O)NC4 [staurosporine, reference compound] | 5.0 °C | 2.8 °C | 13.6 °C | 18.0 °C | 16.0 °C | 23.3 °C | 12.4 °C | 6.6 °C | 14.9 °C | 9.6 °C | 10.3 °C | 16.4 °C | 9.8 °C | 7.5 °C | 6.6 °C | 13.8 °C | 19.1 °C
4 | COC(=O)c1cc(Nc2ccnc(NCCOCCNC(=O)OC(C)(C)C)n2)[nH]n1 [21d, methyl 5-((2-((2-(2-((tert-butoxycarbonyl)amino)ethoxy)ethyl)amino)pyrimidin-4-yl)amino)-1H-pyrazole-3-carboxylate] | 0.8 °C | 0.5 °C | 2.0 °C | 1.0 °C | 3.0 °C | -0.7 °C | 1.5 °C | 1.9 °C | 1.6 °C | 1.8 °C | 1.3 °C | 1.7 °C | -2.4 °C | 0.5 °C | 1.1 °C | 0.8 °C | 5.7 °C
5 | CC(C)OC(=O)c1cc(Nc2ccnc(NCc3ccc(NC(=O)OC(C)(C)C)cc3)n2)n[nH]1 [42d, isopropyl 3-((2-((4-((tert-butoxycarbonyl)amino)benzyl)amino)pyrimidin-4-yl)amino)-1H-pyrazole-5-carboxylate] | 1.3 °C | -0.7 °C | 0.6 °C | -0.6 °C | 3.7 °C | -0.7 °C | -2.4 °C | -0.8 °C | -0.5 °C | -0.6 °C | -3.1 °C | 0.3 °C | -0.3 °C | 1.0 °C | -1.1 °C | -0.8 °C | 1.4 °C
6 | N#CCc1ccc(Nc2nccc(Nc3cc(C4CC4)[nH]n3)n2)cc1 [compound 1, reference compound] | 5.1 °C | -0.1 °C | 10.6 °C | 8.8 °C | 11.1 °C | 10.1 °C | 8.9 °C | 4.4 °C | 9.6 °C | 7.6 °C | 4.9 °C | 8.2 °C | 4.9 °C | 8.0 °C | 3.3 °C | 9.8 °C | 18.8 °C
